Read-outs that look alike come from different tables or passages of the source.
Tests used:
Type in all cases: in vivo
[1] = tested on: tobacco budworm (Heliothis virescens); test: Test 1: control of tobacco budworm, 96-well microtiter plates with insect diet and eggs
Method: For evaluating control of tobacco budworm (Heliothis virescens) the test unit consisted of 96-well-microtiter plates containing an insect diet and 15-25 H. virescens eggs.
The compounds or mixtures were formulated using a solution containing 75% water and 25% DMSO. Different concentrations of formulated compounds or mixtures were sprayed onto the insect diet at 10 μl, using a custom-built micro atomizer, at two replications.
For experimental mixtures in these tests, identical volumes of both mixing partners at the desired concentrations respectively, were mixed together.
After application, microtiter plates were incubated at 28±1° C., 80±5% RH for 5 days. Egg and larval mortality were then visually assessed. For the mixture tested the results are listed in Tables 1.1 to 1.7, wherein the * marks synergistic control effect according to Colby's equation.

[2] = tested on: yellow fever mosquito (Aedes aegypti); test: whole plant or invertebrate
Method: For evaluating control of yellow fever mosquito (Aedes aegypti) the test unit consisted of 96-well-microtiter plates containing 200 μl of tap water per well and 5-15 freshly hatched A. aegypti larvae.
The compounds or mixtures were formulated using a solution containing 75% water and 25% DMSO. Different concentrations of formulated compounds or mixtures were sprayed onto the insect diet at 2.5 μl, using a custom-built micro atomizer, at two replications.
(§1) For experimental mixtures in these tests identical volumes of both mixing partners at the desired concentrations respectively, were mixed together.
After application, microtiter plates were incubated at 28±1° C., 80±5% RH for 2 days. Larval mortality was then visually assessed. For the mixture tested the results are listed in Table 2.1 to 2.11, wherein the * marks synergistic control effect according to Colby's equation.

[3] = tested on: green peach aphid (Myzus persicae); test: Test 3: control of green peach aphid through systemic means, artificial diet under membrane; details: aphid mortality and fecundity after 3 days
Source text: For evaluating control of green peach aphid (Myzus persicae) through systemic means the test unit consisted of 96-well-microtiter plates containing liquid artificial diet under an artificial membrane.
Different concentrations of formulated compounds or mixtures were pipetted into the aphid diet, using a custom built pipetter, at two replications.
as §1
After application, 5-8 adult aphids were placed on the artificial membrane inside the microtiter plate wells. The aphids were then allowed to suck on the treated aphid diet and incubated at 23±1° C. 50±5% RH for 3 days. Aphid mortality and fecundity was then visually assessed.

[4] = tested on: boll weevil (Anthonomus grandis); test: Test 4: control of boll weevil, 24-well microtiter plates with insect diet and eggs; details: egg and larval mortality after 5 days
Method: For evaluating control of boll weevil (Anthonomus grandis) the test unit consisted of 24-well-microtiter plates containing an insect diet and 20-30 A. grandis eggs.
The compounds or mixtures were formulated using a solution containing 75% water and 25% DMSO. Different concentrations of formulated compounds or mixtures were sprayed onto the insect diet at 20 μl, using a custom-built micro atomizer, at two replications.
as §1
After application, microtiter plates were incubated at 23±1° C., 50±5% RH for 5 days. Egg and larval mortality was then visually assessed. For the mixture tested the results are listed in tables 4.1 to 4.4, wherein the * marks synergistic control effect according to Colby's equation.

[5] = tested on: tobacco budworm (Plutella xylostella); test: Test 5: control of Plutella xylostella, 96-well microtiter plates with insect diet and eggs; details: egg and larval mortality after 5 days
Method: For evaluating control of […] (Plutella xylostella) the test unit consisted of 96-well-microtiter plates containing an insect diet and 15-25 P. xylostella eggs.
The compounds or mixtures were formulated using a solution containing 75% water and 25% DMSO. Different concentrations of formulated compounds or mixtures were sprayed onto the insect diet at 5 μl, using a custom-built micro atomizer, at two replications.
as §1
After application, microtiter plates were incubated at 28±1° C., 80±5% RH for 5 days. Egg and larval mortality was then visually assessed.

[6] = Heliothis virescens, 120 h, 0.4 ppm, egg and larval mortality after 5 days, read-out: Average control observed (%)
[7] = Aedes aegypti, 48 h, 0.4 ppm, larval mortality after 2 days, read-out: Average control observed (%)
[8] = 0.4 ppm, larval mortality after 2 days
[9] = 2 ppm, larval mortality after 2 days
[10] = Aedes aegypti, 48 h, 4 ppm, larval mortality after 2 days, read-out: Average control observed (%)

Compound: Cc1c(COC(=O)[C@@H]2[C@H](/C=C(\Cl)C(F)(F)F)C2(C)C)cccc1-c1ccccc1 (racemic) [Bifenthrin (2b), bifenthrin]
- pest or weed control at 0.4 ppm [1, 6]: 0%
- pest or weed control at 0.4 ppm [2, 7]: 25%

Compound: CCOC(=O)OC1=C(c2cc(C)ccc2C)C(=O)N[C@]12CC[C@@H](OC)CC2 [Spirotetramat (13a), spirotetramat]
- pest or weed control at 80 ppm ([2]; Aedes aegypti, 48 h, 80 ppm, larval mortality after 2 days, read-out: Average control observed (%)): 0%

Compound: spinetoram [Spinetoram (4b)]
- Average control observed (%) ([1]; 0.2 ppm, egg and larval mortality after 5 days): 0%

Compound: O=C1C=C(N(Cc2ccc(Cl)nc2)CC(F)F)CO1 [Flupyradifurone (3i), flupyradifurone]
- Average control observed (%) ([3]; 2 ppm): 12.5%

Compound: O=C(NC(=O)c1c(F)cccc1F)Nc1cc(Cl)c(F)c(Cl)c1F [Teflubenzuron (9), teflubenzuron]
- Average control observed (%) ([4]; 0.1 ppm): 12.5%

Compound: CN1COCN(Cc2cnc(Cl)s2)/C1=N\[N+](=O)[O-] [Thiamethoxam (3a), thiamethoxam]
- pest or weed control at 0.03 ppm ([1]; Heliothis virescens, 120 h, 0.03 ppm, egg and larval mortality after 5 days, read-out: Average control observed (%)): 0%
- Average control observed (%) ([4]; 0.03 ppm): 0%
- Average control observed (%) ([5]; 0.03 ppm): 0%

Compound: Cc1cc(C(F)(C(F)(F)F)C(F)(F)F)ccc1NC(=O)c1cccc(I)c1C(=O)NC(C)(C)CS(C)(=O)=O [Flubendiamide (14a), Flubendiamide]
- pest or weed control at 0.4 ppm [1, 6]: 12.5%

Compound: N#Cc1nn(-c2c(Cl)cc(C(F)(F)F)cc2Cl)c(N)c1[S+]([O-])C(F)(F)F (centres unmarked) [Fipronil (1b), fipronil]
- pest or weed control at 0.08 ppm ([1]; Heliothis virescens, 120 h, read-out: Average control observed (%)): 0%
- pest or weed control at 0.4 ppm [2, 7]: 0%
- Average control observed (%) ([4]; 0.4 ppm): 12.5%

Compound: O=[N+]([O-])NC1=NCCN1Cc1ccc(Cl)nc1 [Imidacloprid (3b), imidacloprid]
- Average control observed (%) ([3]; 0.8 ppm): 0%

Compound: CNC(=O)c1cc(Cl)cc(C)c1NC(=O)c1cc(Br)nn1-c1ncccc1Cl [Chlorantraniliprole (14b), Chlorantraniliprole]
- Average control observed (%) ([3]; 0.4 ppm): 0%

Compound: CC1(C)C(C=C(Cl)Cl)C1C(=O)OC(C#N)c1ccc(F)c(Oc2ccccc2)c1 (centres unmarked) [Cyfluthrin (2c), cyfluthrin]
- Average control observed (%) [2, 8]: 0%

Compound: CN/C(=N/CC1CCOC1)N[N+](=O)[O-] (centres unmarked) [Dinotefuran (3f), dinotefuran]
- pest or weed control at 20 ppm ([1]; Heliothis virescens, 120 h, 20 ppm, egg and larval mortality after 5 days, read-out: Average control observed (%)): 0%
- pest or weed control at 4 ppm ([2]; Aedes aegypti, 48 h, read-out: Average control observed (%)): 0%

Compound: COc1cccc(C(=O)NN(C(=O)c2cc(C)cc(C)c2)C(C)(C)C)c1C [Methoxyfenozide (11), methoxyfenozide]
- pest or weed control at 0.4 ppm [1, 6]: 37.5%

Compound: CN(C(=O)c1ccccc1)c1cccc(C(=O)Nc2c(Br)cc(C(F)(C(F)(F)F)C(F)(F)F)cc2C(F)(F)F)c1F [Broflanilide (16), broflanilide]
- Average control observed (%) [2, 9]: 12.5%

Compound: N#C/N=C1\SCCN1Cc1ccc(Cl)nc1 [Thiacloprid (3e), thiacloprid]
- pest or weed control at 4 ppm [2, 10]: 50%

Compound: CCOCn1c(-c2ccc(Cl)cc2)c(C#N)c(Br)c1C(F)(F)F [Chlorfenapyr (8), chlorfenapyr]
- pest or weed control at 0.8 ppm ([2]; Aedes aegypti, 48 h, 0.8 ppm, larval mortality after 2 days, read-out: Average control observed (%)): 0%

Compound: COC(=O)N(C(=O)N1CO[C@@]2(C(=O)OC)Cc3cc(Cl)ccc3C2=N1)c1ccc(OC(F)(F)F)cc1 [Indoxacarb (12), indoxacarb]
- Average control observed (%) ([1]; 0.4 ppm, egg and larval mortality after 5 days): 0%
- Average control observed (%) ([2]; 0.08 ppm, larval mortality after 2 days): 0%
- Average control observed (%) [2, 8]: 0%
- Average control observed (%) [2, 9]: 0%
- Average control observed (%) ([4]; 0.08 ppm): 25%

Compound: C/C(=N\C#N)N(C)Cc1ccc(Cl)nc1 [Acetamiprid (3d), acetamiprid]
- pest or weed control at 4 ppm [2, 10]: 0%

Compound: O=C(NCc1ncccn1)c1ccc(C2=NO[C@@](c3cc(Cl)c(F)c(Cl)c3)(C(F)(F)F)C2)c2ccncc12 [Compound I-1, 5-[(5S)-5-(3,5-dichloro-4-fluoro-phenyl)-5-(trifluoromethyl)-4H-isoxazol-3-yl]-N-(pyrimidin-2-ylmethyl)isoquinoline-8-carboxamide]
- pest or weed control at 0.009 ppm ([1]; Heliothis virescens, 120 h, 0.009 ppm, egg and larval mortality after 5 days, read-out: Average control observed (%)): 0%
- pest or weed control at 0.048 ppm ([1]; Heliothis virescens, 120 h, 0.048 ppm, egg and larval mortality after 5 days, read-out: Average control observed (%)): 0%
- pest or weed control at 0.24 ppm ([1]; Heliothis virescens, 120 h, 0.24 ppm, egg and larval mortality after 5 days, read-out: Average control observed (%)): 0%
- pest or weed control at 0.009 ppm ([2]; Aedes aegypti, 48 h, 0.009 ppm, larval mortality after 2 days, read-out: Average control observed (%)): 0%
- pest or weed control at 0.048 ppm ([2]; Aedes aegypti, 48 h, 0.048 ppm, larval mortality after 2 days, read-out: Average control observed (%)): 0%
- pest or weed control at 0.24 ppm ([2]; Aedes aegypti, 48 h, 0.24 ppm, larval mortality after 2 days, read-out: Average control observed (%)): 0%
- Average control observed (%) ([3]; 0.009 ppm): 0%
- Average control observed (%) ([3]; 0.24 ppm): 0%
- Average control observed (%) ([4]; 0.048 ppm): 0%
- Average control observed (%) ([4]; 0.24 ppm): 0%
- Average control observed (%) ([5]; 0.05 ppm): 0%

Compound: CCN(C(=O)c1cnn(C(C)C(C)C)c1C)c1ccnnc1 (centres unmarked) [Dimpropyridaz (17b), dimpropyridaz]
- Average control observed (%) ([3]; 2 ppm): 0%

Compound: CC1(C)C(C=C(Cl)Cl)C1C(=O)OC(C#N)c1cccc(Oc2ccccc2)c1 (stereo not drawn) [alpha-cypermethrin (2a), alpha-cypermethrin]
- pest or weed control at 0.4 ppm [1, 6]: 25%

Compound: CN/C(=N\[N+](=O)[O-])NCc1cnc(Cl)s1 [Clothianidin (3c), clothianidin]
- pest or weed control at 1 ppm ([2]; Aedes aegypti, 48 h, 1 ppm, larval mortality after 2 days, read-out: Average control observed (%)): 0%

Compound: CC1(C)[C@H](/C=C(\Cl)C(F)(F)F)[C@@H]1C(=O)O[C@@H](C#N)c1cccc(Oc2ccccc2)c1 [lamda-cyhalothrin (2e), lamda-cyhalothrin]
- Average control observed (%) ([1]; 0.16 ppm, egg and larval mortality after 5 days): 50%
- Average control observed (%) ([2]; 0.16 ppm, larval mortality after 2 days): 0%
